PubChem BioAssay AID602168 (The Scripps Research Institute Molecular Screening Center, 2012)
The source made the active and inactive calls. How the calls were made is not given here.

Biological target: Nuclear receptor coactivator 1 (Homo sapiens) (UniProt Q15788)
Experiment: NCOA1 reporter inhibition potency – cell-based, luminescence, counter-screen for SRC3 inhibitor project, dose response (AID 602168)
Conditions: Cell-based SRC1 luciferase reporter

Chain of Nuclear receptor coactivator 1 (Homo sapiens) (Q15788 whole entry, looked up): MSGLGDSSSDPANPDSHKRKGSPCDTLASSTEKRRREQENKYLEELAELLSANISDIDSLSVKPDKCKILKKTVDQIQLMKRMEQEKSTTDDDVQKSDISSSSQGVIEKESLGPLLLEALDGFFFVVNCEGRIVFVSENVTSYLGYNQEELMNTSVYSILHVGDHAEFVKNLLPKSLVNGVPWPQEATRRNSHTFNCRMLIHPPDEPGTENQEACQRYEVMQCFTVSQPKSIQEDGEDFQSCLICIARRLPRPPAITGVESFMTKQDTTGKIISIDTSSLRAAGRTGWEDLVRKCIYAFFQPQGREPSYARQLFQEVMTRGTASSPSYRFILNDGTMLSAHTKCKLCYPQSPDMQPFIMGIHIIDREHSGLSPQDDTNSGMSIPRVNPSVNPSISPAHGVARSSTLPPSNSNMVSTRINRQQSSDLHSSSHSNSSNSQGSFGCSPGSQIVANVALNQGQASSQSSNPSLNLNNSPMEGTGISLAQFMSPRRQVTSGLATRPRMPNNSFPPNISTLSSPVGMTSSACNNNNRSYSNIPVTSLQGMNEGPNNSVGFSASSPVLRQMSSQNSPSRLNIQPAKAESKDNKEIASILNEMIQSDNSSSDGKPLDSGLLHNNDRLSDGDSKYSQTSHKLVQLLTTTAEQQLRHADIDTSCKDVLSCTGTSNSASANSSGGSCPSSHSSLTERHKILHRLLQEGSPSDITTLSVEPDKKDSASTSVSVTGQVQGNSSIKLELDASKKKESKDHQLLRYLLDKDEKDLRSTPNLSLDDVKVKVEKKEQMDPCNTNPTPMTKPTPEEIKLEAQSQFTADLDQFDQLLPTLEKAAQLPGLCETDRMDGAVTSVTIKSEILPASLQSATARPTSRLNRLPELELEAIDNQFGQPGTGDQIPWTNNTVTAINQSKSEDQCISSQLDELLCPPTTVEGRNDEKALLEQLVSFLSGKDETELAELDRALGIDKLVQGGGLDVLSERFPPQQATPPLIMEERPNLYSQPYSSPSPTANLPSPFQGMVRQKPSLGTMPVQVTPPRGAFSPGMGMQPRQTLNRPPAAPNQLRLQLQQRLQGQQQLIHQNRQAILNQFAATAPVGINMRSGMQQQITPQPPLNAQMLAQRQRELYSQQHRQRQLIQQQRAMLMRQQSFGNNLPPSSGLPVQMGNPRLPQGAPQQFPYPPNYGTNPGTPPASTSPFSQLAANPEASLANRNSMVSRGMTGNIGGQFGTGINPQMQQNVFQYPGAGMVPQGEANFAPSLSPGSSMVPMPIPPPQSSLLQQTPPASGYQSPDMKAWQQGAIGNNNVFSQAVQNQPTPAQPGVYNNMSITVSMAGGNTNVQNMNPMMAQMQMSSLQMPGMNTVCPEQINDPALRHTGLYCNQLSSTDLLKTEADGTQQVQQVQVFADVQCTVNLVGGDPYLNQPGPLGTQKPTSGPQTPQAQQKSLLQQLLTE

Row | SMILES | IC50
1 | O=c1[nH]c2ccccc2n1C1CCN(C(c2ccccc2)c2nnnn2-c2ccc3c(c2)OCCO3)CC1 (stereo not drawn) | inactive
2 | CCOc1ccc(Nc2cc(C)nc(-n3nc(C)cc3C)n2)cc1 | > 35.9 µM (inactive)
3 | O=C(NC(NC(=S)N1CCOCC1)C(Cl)(Cl)Cl)c1ccc(Cl)cc1 (stereo not drawn) | inactive
4 | COc1ccc(OC)c(N/C=C/C(=O)c2ccccc2)c1 | inactive
5 | CCOc1cc(/C=C2\CCC/C(=C\c3cc(Cl)c(O)c(OCC)c3)C2=O)cc(Cl)c1O | > 35.8 µM (inactive)
6 | O=C(Nc1nc2cc3c(cc2s1)OCCO3)C1=COCCO1 | inactive
7 | CC(=O)N1CCN(c2ncnc3ccccc23)CC1 | inactive
8 | O=C(CCl)N1N=C(c2ccco2)CC1c1ccco1 (stereo not drawn) | > 35.9 µM (inactive)
9 | O=C(NC1CCCCC1)C(c1cccnc1)N(C(=O)CCl)c1cccc(Cl)c1 (stereo not drawn) | inactive
10 | O=C(COc1ccc(Cl)cc1)Nc1ccc(C(=O)NCc2cccnc2)cc1 | 9.27 µM
11 | CN1C(=O)C2(C(C#N)=C(N)N(c3cc(Cl)cc(Cl)c3)C3=C2C(=O)CCC3)c2ccccc21 (stereo not drawn) | > 35.9 µM (inactive)
12 | C(=N\Nc1ccc2ccccc2n1)/c1ccc2c(c1)OCCO2 | inactive
13 | COc1cc(C(=O)N/N=C(\c2ccccc2)c2ccccn2)cc(OC)c1OC | > 12 µM (inactive)
14 | Cc1ccc(-n2c(C)cc(C(=O)COc3cccnc3[N+](=O)[O-])c2C)cc1 | > 35.9 µM (inactive)
15 | CS(=O)c1nc(-c2ccc(Br)cc2)cc(-c2ccccc2)c1C#N (stereo not drawn) | inactive
16 | CCCS(=O)(=O)Nc1ccc(Nc2c3ccccc3nc3ccccc23)c(OC)c1 | 0.525 µM
17 | O=C(N/N=C/c1cc(Br)c(Br)s1)c1ccncc1 | inactive
18 | CN(Cc1cnc2nc(N)nc(N)c2n1)c1ccc(C(=O)NC(CCC(=O)O)C(=O)O)cc1 (stereo not drawn) | > 35.9 µM (inactive)
19 | Cc1c(/C(O)=C2/C(=O)C(=O)N(Cc3cccnc3)C2c2ccccn2)cnn1-c1ccccc1 (stereo not drawn) | > 35.9 µM (inactive)
20 | Cc1ccc(N=Nc2ccc3ccccc3c2O)cc1 | > 35.9 µM (inactive)
21 | CCn1ccnc1CN(C)Cc1cn[nH]c1-c1ccc(OC)c(F)c1 | 9.9 µM
22 | Brc1ccc2ncc3ccccc3c2c1 | inactive
23 | CCOc1ccc(CC(=O)Nc2ccc(NC(=O)c3ccco3)cc2)cc1OCC | 4.28 µM
24 | Cc1cccc(CN2CCN(C(=O)CCl)CC2)c1 | > 35.9 µM (inactive)
25 | Cc1ccc(/C=C2/SC(=S)N(CCCC(=O)Nc3ccc(O)cc3)C2=O)cc1 | > 35.9 µM (inactive)
26 | NS(=O)(=O)c1ccc(Sc2nc3ccccc3s2)c([N+](=O)[O-])c1 | > 35.9 µM (inactive)

Row | SMILES | IC50
27 | CN(C)c1ccc(C(=S)Nc2ccccc2)cc1 | > 35.9 µM (inactive)
28 | O=c1[nH]c2ccccc2n1C1CCN(C(c2cccc3ccccc23)c2nnnn2-c2ccc3c(c2)OCCO3)CC1 (stereo not drawn) | inactive
29 | COc1ccc(-n2cnc3c(sc4nccc(N(C)C)c43)c2=O)cc1 | inactive
30 | c1ccc(-c2noc(-c3ccc4ccccc4c3)n2)nc1 | inactive
31 | C=CCOn1c(C)c(C(C)=O)c2c3nonc3ccc21 | 9.06 µM
32 | CCC(=O)c1ccc(O)c(CC=C(C)C)c1 | inactive
33 | CN1C(=O)C2(C(C#N)=C(N)N(c3cc(Cl)cc(Cl)c3)C3=C2C(=O)CC(C)(C)C3)c2ccccc21 (stereo not drawn) | > 35.9 µM (inactive)
34 | Nc1ncnc(NCc2ccccc2)c1[N+](=O)[O-] | inactive
35 | COc1ccccc1C(=O)N(CCC1CCCN1C)c1nc2ccccc2s1 (stereo not drawn) | > 35.9 µM (inactive)
36 | O=C(CCl)NC(Cc1ccccc1)c1ccccc1 (stereo not drawn) | inactive
37 | O=C(CCl)Nc1cccc(-c2cnc3ccccc3n2)c1 | inactive
38 | CCOc1ccc(/C=C2\SC(=S)N(CCC(=O)O)C2=O)cc1 | 9.2 µM
39 | Cc1nc(N2CCC(C(N)=O)CC2)c2c(-c3cccs3)csc2n1 | 8.33 µM
40 | Nc1ccc(Oc2ccccc2-c2ccccc2)cc1 | inactive
41 | CN(C)S(=O)(=O)c1ccc(N2CCN(S(=O)(=O)c3ccc(F)cc3)CC2)c(Cl)c1 | inactive
42 | CC(=O)c1cccc(NC(=O)Nc2ccc3c(c2)N(C)C(=O)CS3)c1 | inactive
43 | CC(=O)Nc1ccc(SCC(=O)c2cc(C)n(-c3ccccc3F)c2C)cc1 | > 12 µM (inactive)
44 | CC(C)(C)n1ncc2c(=O)n(CC(=O)OCc3ccccc3)cnc21 | > 35.9 µM (inactive)
45 | O=C(Nc1ccccc1Oc1ccccc1)c1cc([N+](=O)[O-])ccc1Cl | inactive
46 | CCOc1cc(C(N)=O)cc(Br)c1OC | inactive
47 | COc1ccc(C(C(=O)NC2CCCCC2)N(C(=O)CCl)c2ccc(OC)cc2)cc1 (stereo not drawn) | inactive
48 | O=C(c1ccncc1)N(Cc1cc2ccccc2[nH]c1=O)C1CCCCC1 | 7.48 µM
49 | C=CS(=O)(=O)N(Cc1ccc(Cl)c(Cl)c1)C[C@@H](O)CO | > 35.8 µM (inactive)
50 | Cc1ccc(OCC(=O)c2cc(C)n(-c3ccccc3)c2C)c([N+](=O)[O-])n1 | inactive
51 | O=C(N/N=C\c1ccc([N+](=O)[O-])o1)C1COc2ccccc2O1 (stereo not drawn) | > 35.9 µM (inactive)
52 | O=C(NCCCn1ccnc1)c1ccc(N2CCCCCC2)c([N+](=O)[O-])c1 | inactive

Row | SMILES | IC50
53 | O=C(NCCc1ccccc1)c1ccc2c(c1)OCCO2 | inactive
54 | Nc1nc(=S)c2ncn([C@@H]3O[C@H](CO)[C@@H](O)[C@H]3O)c2[nH]1 | > 35.9 µM (inactive)
55 | C(=NNc1ccc2ccccc2n1)c1ccccn1 | > 35.9 µM (inactive)
56 | CN(C)c1ccc(CNC(=O)CCNS(=O)(=O)c2cc(Br)cnc2N)cc1 | inactive
57 | O=C(OCCC12CC3CC(CC(C3)C1)C2)c1ccc(NCc2cc(O)ccc2O)cc1 | inactive
58 | CO[C@@]12[C@@H]3N[C@@H]3CN1C1=C(C(=O)C(N)=C(C)C1=O)[C@@H]2COC(N)=O | > 35.8 µM (inactive)
59 | COc1ccc(OC)c(Cc2cnc3nc(N)nc(N)c3c2C)c1 | > 35.9 µM (inactive)
60 | Cc1ccc2occ(/C=N/NC(=O)[C@@H](N)Cc3ccccc3)c(=O)c2c1 | inactive
61 | COC(=O)c1cccc2c1-c1ccccc1/C2=N/O | 6.3 µM
62 | Nc1nccc(-c2ccc(-n3cnc4ccccc43)cc2)n1 | 2.23 µM
63 | CN(C)c1ccc(/C=C/c2ccc3ccccc3n2)cc1 | inactive
64 | COc1cccc(F)c1C(C[N+](=O)[O-])c1c(N)n(C)c(=O)n(C)c1=O (stereo not drawn) | inactive
65 | CC1CCN(C2=NC(=O)/C(=C/c3ccccc3F)S2)CC1 | > 35.9 µM (inactive)
66 | COc1cccc(/C=N/Nc2cc(-n3nc(C)cc3-c3ccccc3)ncn2)c1O | inactive
67 | COc1cc2oc(=O)cc(-c3ccc(-c4ccc(CO)cc4)cc3)c2c(OC)c1OC | 8.05 µM
68 | Cc1ccc(N(CCC#N)C(=O)CCl)cc1C | inactive
69 | COc1cccc2c1C(=N)c1c(O)c3c(c(O)c1C2=O)CC(O)(C(C)=O)CC3OC1CC(N)C(O)C(C)O1 (stereo not drawn) | > 35.9 µM (inactive)
70 | COc1ccc2[nH]c(=O)c(CN(CCN3CCCC3)C(=O)Nc3ccccc3Cl)cc2c1 | inactive
71 | O=C(COC(=O)c1ccc[nH]c1=O)Nc1ccc(N2CCCCC2)cc1 | > 35.9 µM (inactive)
72 | COc1ccc(C)cc1NS(=O)(=O)c1ccc(NC(=O)CN(c2cc([N+](=O)[O-])ccc2C)S(C)(=O)=O)cc1 | inactive
73 | CCc1ccc(/C=C2\SC(=S)N(CCCC(=O)NCCCN3CCOCC3)C2=O)cc1 | inactive
74 | CCOC(=O)c1cc2sccc2n1CC(=O)N1CCc2ccccc21 | > 35.9 µM (inactive)
75 | O=C(CCl)N(c1ccccc1)C1CCCCC1 | inactive
76 | O=C(CNc1cccc([N+](=O)[O-])c1)N/N=C/c1ccc([N+](=O)[O-])o1 | > 35.9 µM (inactive)
77 | Nc1nc(CCl)nc(Nc2cccc3ccccc23)n1 | inactive
78 | C[C@@H](C(=O)Nc1ccc2c(c1)OCCO2)n1c(=O)[nH]c2ccccc2c1=O | > 35.9 µM (inactive)

Row | SMILES | IC50
79 | CCCCN1C=CC(=C2C(=O)c3ccccc3C2=O)C=C1 | > 35.9 µM (inactive)
80 | CCn1nc(/C=C/c2ccccc2)nc2c(=O)n(C)c(=O)nc1-2 | > 35.9 µM (inactive)
81 | Cc1ccc(C(=O)Nc2cnc3ccccc3c2)cc1 | inactive
82 | Cc1ccc(C2=NN(C(=O)CCl)C(c3cccs3)C2)o1 (stereo not drawn) | inactive
83 | CCCC(=O)NC(c1ccc(Cl)cc1)c1ccc2cccnc2c1O (stereo not drawn) | 8.71 µM
84 | Cc1ccc2nc(C(F)(F)F)c(C#N)c(N)c2c1 | inactive
85 | Cc1cccc(Oc2sc(C(=O)c3ccccc3)c(N)c2C#N)c1 | inactive
86 | CCOc1ccccc1-n1c(SCC(=O)Nc2ccccc2C(=O)O)nc2ccccc2c1=O | > 35.9 µM (inactive)
87 | NC(=S)N/N=C1\CCOc2ccc(Cl)cc21 | > 35.9 µM (inactive)
88 | COc1cc(/C=N/NC(N)=S)cc(Br)c1OCc1ccccc1F | inactive
89 | CCOc1ccc(/C=C2\SC(=S)N(CCCC(=O)NCCCN3CCOCC3)C2=O)cc1 | > 35.9 µM (inactive)
90 | COc1cc2c(c(OC)c1OC)-c1ccc(SC)c(=O)cc1C(NC=O)CC2 (stereo not drawn) | > 35.9 µM (inactive)
91 | COc1cc(/C=C(/C(=O)c2cccs2)c2nc3ccccc3[nH]2)cc(OC)c1O | > 35.9 µM (inactive)
92 | CN[C@H]1CCc2cc(OC)c(OC)c(OC)c2-c2ccc(OC)c(=O)cc21 | > 35.9 µM (inactive)
93 | CN1CCN(c2ccc(NC(=O)N3CCc4ccccc43)cc2)CC1 | > 35.9 µM (inactive)
94 | Nc1ncccc1C(=O)OCC(=O)N1CCN(S(=O)(=O)c2ccc(Cl)cc2)CC1 | inactive
95 | c1cc2[nH]snc2c2nc(C3CC3)nc12 | inactive
96 | CNC(=O)c1cccn(Cc2ccc(C(F)(F)F)cc2)c1=O | > 35.8 µM (inactive)
97 | Cc1cccc(C)c1NS(=O)(=O)c1ccc(-c2cnc(C3CC3)o2)cc1 | inactive
98 | OCCN1CCN(C(=S)c2ccc(-c3ccccc3)cc2)CC1 | 3.67 µM
99 | Nc1ccc(-c2cc3ccccc3oc2=O)cc1 | > 35.9 µM (inactive)
100 | C=CCn1c(C)cc(C(=O)COc2ccc(C)nc2[N+](=O)[O-])c1C | > 35.9 µM (inactive)
101 | Cc1c(CC(=O)NCCCC(=O)O)c(=O)oc2cc3c(cc12)CCC(C)(C)O3 | 9.04 µM
102 | CCCC(=O)NC(c1ccc2c(c1)OCO2)c1cc(Cl)c2cccnc2c1O (stereo not drawn) | 7.24 µM
103 | CC1(C)N=C(N)N=C(N)N1CCCCc1ccccc1 | 4.58 µM
